# Values quoted from earlier work, collected in PubChem BioAssay AID1259409 (Chemical Carcinogenesis Research Information System (CCRIS), 2018).
# Tested on: rodent chemically induced tumor inhibition, incidence and multiplicity
# Test: CCRIS tumor inhibitor studies
# Conditions: Carcinogen: L-AZASERINE, 115-02-6, Route [Inhibitor]: ORAL, Species: RAT, Dose [Carcinogen]: 10 MG/KG BW 1/WK FOR 15 WK, Promoter: NONE USED
structure (smiles),measurement,setting,value
CCC(=O)Oc1ccc(NC(=O)\C=C(C)/C=C/C=C(C)/C=C/C2=C(C)CCCC2(C)C)cc1,"tumour outcome (control, treated, inhibition, significance)","Dose [Inhibitor]: 1 MMOL/KG DIET DAILY FOR 84 D FOLLOWED BY 0.5 MMOL/KG DIET FOR 276 D STARTING 1 WK AFTER COMPLETION OF CARCINOGEN TREATM, Strain/Sex: WISTAR-LEWIS/FEMALE, Target Tissue: Type of Lesion: PANCREAS: ADENOMA","50%, 17%, 66%, not significant"
same,"tumour outcome (control, treated, inhibition, significance)","Dose [Inhibitor]: 1 MMOL/KG DIET DAILY FOR 84 D FOLLOWED BY 0.5 MMOL/KG DIET FOR 276 D STARTING 1 WK AFTER COMPLETION OF CARCINOGEN TREATM, Strain/Sex: WISTAR-LEWIS/FEMALE, Target Tissue: Type of Lesion: PANCREAS: CARCINOMA IN SITU","8%, 21%, -163%, not calculated"
same,"tumour outcome (control, treated, inhibition, significance)","Dose [Inhibitor]: 1 MMOL/KG DIET DAILY FOR 84 D FOLLOWED BY 0.5 MMOL/KG DIET FOR 276 D STARTING 1 WK AFTER COMPLETION OF CARCINOGEN TREATM, Strain/Sex: WISTAR-LEWIS/FEMALE, Target Tissue: Type of Lesion: PANCREAS: CARCINOMA","13%, 0%, 100%, not significant"
same,"tumour outcome (control, treated, inhibition, significance)","Dose [Inhibitor]: 1 MMOL/KG DIET DAILY FOR 84 D FOLLOWED BY 0.5 MMOL/KG DIET FOR 276 D STARTING 1 WK AFTER COMPLETION OF CARCINOGEN TREATM, Strain/Sex: WISTAR-LEWIS/FEMALE, Target Tissue: Type of Lesion: PANCREAS: NEOPLASM","71%, 38%, 46%, p<0.05"
same,"tumour outcome (control, treated, inhibition, significance)","Dose [Inhibitor]: 1 MMOL/KG DIET DAILY FOR 84 D FOLLOWED BY 0.5 MMOL/KG DIET FOR 276 D STARTING 1 WK AFTER COMPLETION OF CARCINOGEN TREATM, Strain/Sex: WISTAR-LEWIS/MALE, Target Tissue: Type of Lesion: PANCREAS: ADENOMA","25%, 29%, -16%, not significant"
same,"tumour outcome (control, treated, inhibition, significance)","Dose [Inhibitor]: 1 MMOL/KG DIET DAILY FOR 84 D FOLLOWED BY 0.5 MMOL/KG DIET FOR 276 D STARTING 1 WK AFTER COMPLETION OF CARCINOGEN TREATM, Strain/Sex: WISTAR-LEWIS/MALE, Target Tissue: Type of Lesion: PANCREAS: CARCINOMA IN SITU","29%, 42%, -45%, not significant"
same,"tumour outcome (control, treated, inhibition, significance)","Dose [Inhibitor]: 1 MMOL/KG DIET DAILY FOR 84 D FOLLOWED BY 0.5 MMOL/KG DIET FOR 276 D STARTING 1 WK AFTER COMPLETION OF CARCINOGEN TREATM, Strain/Sex: WISTAR-LEWIS/MALE, Target Tissue: Type of Lesion: PANCREAS: CARCINOMA","46%, 21%, 54%, p 0.06"
same,"tumour outcome (control, treated, inhibition, significance)","Dose [Inhibitor]: 1 MMOL/KG DIET DAILY FOR 84 D FOLLOWED BY 0.5 MMOL/KG DIET FOR 276 D STARTING 1 WK AFTER COMPLETION OF CARCINOGEN TREATM, Strain/Sex: WISTAR-LEWIS/MALE, Target Tissue: Type of Lesion: PANCREAS: NEOPLASM","100%, 92%, 8%, not significant"
same,"tumour outcome (control, treated, inhibition, significance)","Dose [Inhibitor]: 2 MMOL/KG DIET FOR 44 D, 1.5 MMOL FOR 26 D, 1 MMOL FOR 56 D AND 0.75 MMOL FOR 192 D STARTING 1 WK AFTER COMPLETION OF CA, Strain/Sex: WISTAR-LEWIS/FEMALE, Target Tissue: Type of Lesion: PANCREAS: ADENOMA","50%, 29%, 42%, not significant"
same,"tumour outcome (control, treated, inhibition, significance)","Dose [Inhibitor]: 2 MMOL/KG DIET FOR 44 D, 1.5 MMOL FOR 26 D, 1 MMOL FOR 56 D AND 0.75 MMOL FOR 192 D STARTING 1 WK AFTER COMPLETION OF CA, Strain/Sex: WISTAR-LEWIS/FEMALE, Target Tissue: Type of Lesion: PANCREAS: CARCINOMA IN SITU","8%, 4%, 50%, not significant"
same,"tumour outcome (control, treated, inhibition, significance)","Dose [Inhibitor]: 2 MMOL/KG DIET FOR 44 D, 1.5 MMOL FOR 26 D, 1 MMOL FOR 56 D AND 0.75 MMOL FOR 192 D STARTING 1 WK AFTER COMPLETION OF CA, Strain/Sex: WISTAR-LEWIS/FEMALE, Target Tissue: Type of Lesion: PANCREAS: CARCINOMA","13%, 4%, 70%, not significant"
same,"tumour outcome (control, treated, inhibition, significance)","Dose [Inhibitor]: 2 MMOL/KG DIET FOR 44 D, 1.5 MMOL FOR 26 D, 1 MMOL FOR 56 D AND 0.75 MMOL FOR 192 D STARTING 1 WK AFTER COMPLETION OF CA, Strain/Sex: WISTAR-LEWIS/FEMALE, Target Tissue: Type of Lesion: PANCREAS: NEOPLASM","71%, 38%, 46%, p<0.05"
same,"tumour outcome (control, treated, inhibition, significance)","Dose [Inhibitor]: 2 MMOL/KG DIET FOR 44 D, 1.5 MMOL FOR 26 D, 1 MMOL FOR 56 D AND 0.75 MMOL FOR 192 D STARTING 1 WK AFTER COMPLETION OF CA, Strain/Sex: WISTAR-LEWIS/MALE, Target Tissue: Type of Lesion: PANCREAS: ADENOMA","25%, 22%, 12%, not significant"
same,"tumour outcome (control, treated, inhibition, significance)","Dose [Inhibitor]: 2 MMOL/KG DIET FOR 44 D, 1.5 MMOL FOR 26 D, 1 MMOL FOR 56 D AND 0.75 MMOL FOR 192 D STARTING 1 WK AFTER COMPLETION OF CA, Strain/Sex: WISTAR-LEWIS/MALE, Target Tissue: Type of Lesion: PANCREAS: CARCINOMA IN SITU","29%, 43%, -48%, not significant"
same,"tumour outcome (control, treated, inhibition, significance)","Dose [Inhibitor]: 2 MMOL/KG DIET FOR 44 D, 1.5 MMOL FOR 26 D, 1 MMOL FOR 56 D AND 0.75 MMOL FOR 192 D STARTING 1 WK AFTER COMPLETION OF CA, Strain/Sex: WISTAR-LEWIS/MALE, Target Tissue: Type of Lesion: PANCREAS: CARCINOMA","46%, 13%, 72%, p<0.05"
same,"tumour outcome (control, treated, inhibition, significance)","Dose [Inhibitor]: 2 MMOL/KG DIET FOR 44 D, 1.5 MMOL FOR 26 D, 1 MMOL FOR 56 D AND 0.75 MMOL FOR 192 D STARTING 1 WK AFTER COMPLETION OF CA, Strain/Sex: WISTAR-LEWIS/MALE, Target Tissue: Type of Lesion: PANCREAS: NEOPLASM","100%, 78%, 22%, not significant"
